Results on three compounds are retold here after EP1482955B1, “PROPHYLACTIC AND THERAPEUTIC TREATMENT OF […] OTHER DISEASES WITH IMMU[…]” (CORIXA CORPORATION, priority 2002, dated 2003).

Experiment [1] deals with L. monocytogenes 10403 serotype. Kind of experiment: Murine Listeria monocytogenes challenge model (induction of non-specific resistance). The format is in vivo. Conditions: mice, 1 µg intravenously in 0.2% TEOA two days before intravenous challenge with ~10^5 L. monocytogenes; spleen CFUs two days after challenge. The protocol:
This example provides experiments evaluating the induction of non-specific resistance in the murine Listeria monocytogenes challenge model performed using the compounds prepared in examples 1, 2 and 3. Mice (5 per group) were treated intravenously with the 1 µg of a cyclic AGP or MPL solublized in 0.2% triethanolamine (TEOA). Two days later the mice were challenged intravenously with a ~10^5 L. monocytogenes 10403 serotype (stock culture provided by Jory Baldridge, Washington State University, Pullman, WA.). Two days after the challenge the mice were sacrificed and the number of colony forming units (CFUs) in the spleens of individual mice were determined by plating 10-fold serial dilutions of splenic homogenates on tryptic soy agar plates. The degree of protection afforded by a given AGP or MPL was calculated by subtracting the average number of bacteria per spleen (log10 value) in the group of mice treated with a given compound, from the average number of bacteria per spleen (log10 value) in a control group that was "sham" treated with vehicle (0.2% TEOA) prior to challenge with L. monocytogenes.

The test system of another experiment is Influenza A/HK/68. Nature of the experiment: Protection against lethal influenza challenge by prophylactic intranasal administration. Conditions: BALB/c mice; for protection when compared with the vehicle control: 20 µg intranasally 48 hours prior to challenge (5 LD50), judged by survival, clinical symptoms and prevention of weight loss for 21 days; for survival rate: 20 µg intranasally 48 hours prior to lethal intranasal challenge (5 LD50), followed 21 days. The format is in vivo. Here is the method: This example provides experiments evaluating protection against a lethal challenge with influenza in cyclic AGP-treated mice. BALB/c mice (10 mice per group) were treated intranasally with 20 µg of the compounds of examples 1, 2 and 3, or with MPL, 48 hours prior to an lethal intranasal challenge of Influenza A/HK/68 (5 LD50). Protection was judged by survival, observations of clinical symptoms (ruffled fur, hunched posture and labored breathing), and prevention of weight loss for 21 days following the challenge.

In the case of `CCCCCCCCCCCC(=O)O[C@H](CCCCCCCCCCC)CC(=O)N[C@H]1[C@H](OC[C@@H]2CCCN2C(=O)C[C@@H](CCCCCCCCCCC)OC(=O)CCCCCCCCCCC)O[C@H](CO)[C@@H](OP(=O)(O)O)[C@@H]1OC(=O)C[C@@H](CCCCCCCCCCC)OC(=O)CCCCCCCCCCC.CCN(CC)CC` [Example 2, N-[(R)-3-Dodecanoyloxytetradecanoyl]-(S)-2-pyrrolidinylmethyl 2-Deoxy-4-O-phosphono-2-[(R)-3-dodecanoyloxy-tetradecanoylamino]-3-O-[(R)-3-dodecanoyloxytetradecanoyl]-β-D-glucopyranoside Triethylammonium Salt], the “protection (average number of bacteria per spleen, log10 value, vehicle control group minus treated group)” value in experiment [1] is 0.7 log 10 units. Further, in the experiment with Influenza A/HK/68, the “protection when compared with the vehicle control” value is given as “enhanced protection” and the survival rate is given as 40%.

For the compound `CCCCCCCCCCC[C@H](CC(=O)N[C@H]1[C@H](OC[C@@H]2CCCN2C(=O)C[C@@H](CCCCCCCCCCC)OC(=O)CCCCCCCCC)O[C@H](CO)[C@@H](OP(=O)(O)O)[C@@H]1OC(=O)C[C@@H](CCCCCCCCCCC)OC(=O)CCCCCCCCC)OC(=O)CCCCCCCCC.CCN(CC)CC` [Example 3, N-[(R)-3-Decanoyloxytetradecanoyl]-(S)-2-pyrrolidinylmethyl 2-Deoxy-4-O-phosphono-2-[(R)-3-Decanoyloxytetradecanoylamino]-3-O-[(R)-3-Decanoyloxytetradecanoyl]-β-D-glucopyranoside Triethylammonium Salt], the “protection (average number of bacteria per spleen, log10 value, vehicle control group minus treated group)” value in experiment [1] is ~ 0.9 log 10 units. For the same compound, in the experiment on Influenza A/HK/68, the “protection when compared with the vehicle control” value is given as “enhanced protection” and the survival rate is 60%.

In the case of “N-[(R)-3-Tetradecanoyloxytetradecanoyl]-(S)-2-pyrrolidinylmethyl 2-Deoxy-4-O-phosphono-2-[(R)-3-tetradecanoyloxytetradecanoylamino]-3-O-[(R)-3-tetradecanoyloxytetradecanoyl]-β-D-glucopyranoside Triethylammonium Salt [Example 1]”, the “protection (average number of bacteria per spleen, log10 value, vehicle control group minus treated group)” value in experiment [1] was determined as 0.2 log 10 units. Also, the survival rate entry in the experiment with Influenza A/HK/68 is on record as “No mice”.
